In patent US11596639B2, “Substituted indole Mcl-1 inhibitors” (Vanderbilt University, priority 2016, dated 2023) one finds Ki and GI50 data, which are given here for 13 compounds.

Assay [1] deals with T1, Mcl-1 (Homo sapiens (Human), UniProt Q07820). In words: TR-FRET binding assay, FITC-Bak peptide and MBP-tagged Mcl-1. Particulars: read-out: Ki for Inhibition of Mcl-1 by TR-FRET assay. As for the experimental part:
Compounds are diluted in DMSO in a 16-point, semilog serial dilution scheme. […] The plate was mixed and incubated for 3 hours at room temperature. […] TR-FRET signal is plotted and IC50 and Ki values are calculated in the same manner as the fluorescence polarization anisotropy based competition assays.

Assay [2] has as its target T1, Mcl-1. In words: Fluorescence polarization anisotropy (FPA) competition assay, FITC-Bak or FITC-Bim BH3 peptide. It is filed as binding. Particulars: read-out: Ki for Inhibition of Mcl-1 by FPA assay.
Assay [3] has as its system H929 human cancer cell lines. In words: Cellular viability / proliferation (Cell TiterGlo, 72 h). It is filed as cell-based. To be noted: H929 cells, 72 h, Cell TiterGlo, 10% FBS; read-out: GI50 on cellular proliferation of H929 human cancer cell lines. Summed up:
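Compounds were added as 2-fold serial dilutions from 50 μM (final DMSO <1%) to H929 cells seeded 1,000 per well in 10% FBS medium one day earlier.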

T1 sequence (Q07820 172-327): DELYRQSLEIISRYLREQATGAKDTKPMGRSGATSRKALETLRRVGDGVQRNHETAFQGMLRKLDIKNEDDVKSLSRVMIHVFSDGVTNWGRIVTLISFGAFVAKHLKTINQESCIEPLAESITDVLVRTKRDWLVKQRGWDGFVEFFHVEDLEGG

For `Cc1cc(OCCCc2c3n(c4c(-c5c(C)nn(C)c5C)c(Cl)ccc24)[C@H](C)CN(c2cc(CN4CCC(Oc5ccc(Cl)cc5)CC4)cc4c(C(=O)O)cn(C)c24)C3=O)cc(C)c1Cl` [Example 547, (R)-7-(7-chloro-10-(3-(4-chloro-3,5-dimethylphenoxy)propyl)-4-methyl-t-oxo-6-(1,3,5-trimethyl-1H-pyrazol-4-yl)-3,4-dihydropyrazino[1,2-a]indol-2(1H)-yl)-5-((4-(4-chlorophenoxy)piperidin-1-yl)methyl)-1-methyl-1H-indole-3-carboxylic acid], on Mcl-1 [1], the Ki was 10 nM. Still for that read-out and setting: under `Cc1cc(OCCCc2c3n(c4c(-c5c(C)nn(C)c5C)c(Cl)ccc24)[C@H](C)CN(c2cc(NC(=O)CCN4CCN(C)CC4)cc4c(C(=O)O)cn(C)c24)C3=O)cc(C)c1Cl` [Example 551, (R)-7-(7-chloro-10-(3-(4-chloro-3,5-dimethylphenoxy)propyl)-4-methyl-1-oxo-6-(1,3,5-trimethyl-1H-pyrazol-4-yl)-3,4-dihydropyrazino[1,2-a]indol-2(1H)-yl)-1-methyl-5(3-(4-methylpiperazin-1-yl)propanamido)-1H-indole-3-carboxylic acid] stands 0.3 nM; under `Cc1cc(OCCCc2c3n(c4c(-c5c(C)nn(C)c5C)c(Cl)ccc24)[C@H](C)CN(c2cc(NC(=O)CN4CCN(C)CC4)cc4c(C(=O)O)cn(C)c24)C3=O)cc(C)c1Cl` [Example 554, (R)-7-(7-chloro-10-(3-(4-chloro-3,5-dimethylphenoxy)propyl)-4-methyl-1-oxo-6-(1,3,5-trimethyl-1H-pyrazol-4-yl)-3,4-dihydropyrazino[1,2-a]indol-2(1H)-yl)-1-methyl-5-(2-(4-methylpiperazin-1-yl)acetamido)-1H-indole-3-carboxylic acid], 0.26 nM; under `Cc1cc(OCCCc2c3n(c4c(-c5c(C)nn(C)c5C)c(Cl)ccc24)[C@H](C)CN(c2cc(N(C)C(=O)CN4CCN(C)CC4)cc4c(C(=O)O)cn(C)c24)C3=O)cc(C)c1Cl` [Example 604, (R)-7-(7-chloro-10-(3-(4-chloro-3,5-dimethylphenoxy)propyl)-4-methyl-1-oxo-6-(1,3,5-trimethyl-1H-pyrazol-4-yl)-3,4-dihydropyrazino[1,2-a]indol-2(1H)-yl)-t-methyl-5-(N-methyl-2-(4-methylpiperazin-1-yl)acetamido)-1H-indole-3-carboxylic acid], 0.73 nM. Still for that read-out and setting: the result for `Cc1cc(OCCCc2c3n(c4c(-c5c(C)nn(C)c5C)c(Cl)ccc24)[C@H](C)CN(c2cc(N(C)C(=O)CN(C)C)cc4c(C(=O)O)cn(C)c24)C3=O)cc(C)c1Cl` [Example 611, (R)-7-(7-chloro-10-(3-(4-chloro-3,5-dimethylphenoxy)propyl)-4-methyl-1-oxo-6-(1,3,5-trimethyl-1H-pyrazol-4-yl)-3,4-dihydropyrazino[1,2-a]indol-2(1H)-yl)-5-(2-(dimethylamino)-N-methylacetamido)-1-methyl-1H-indole-3-carboxylic acid] reads 1.1 nM; that for `Cc1cc(OCCCc2c3n(c4c(-c5c(C)nn(C)c5C)c(Cl)ccc24)[C@H](C)CN(c2cc(N(C)C(=O)CN4CCCC4)cc4c(C(=O)O)cn(C)c24)C3=O)cc(C)c1Cl` [Example 613, (R)-7-(7-chloro-10-(3-(4-chloro-3,5-dimethylphenoxy)propyl)-4-methyl-1-oxo-6-(1,3,5-trimethyl-1H-pyrazol-4-yl)-3,4-dihydropyrazino[1,2-a]indol-2(1H)-yl)-1-methyl-5-(N-methyl-2-(pyrrolidin-1-yl)acetamido)-1H-indole-3-carboxylic acid], 1.9 nM. As to `Cc1cc(OCCCc2c3n(c4c(-c5c(C)nn(C)c5C)c(Cl)ccc24)[C@H](C)CN(c2ccc4ccc(C(=O)O)nc4c2)C3=O)cc(C)c1Cl` [Example 666, (R)-7-(7-chloro-10-(3-(4-chloro-3,5-dimethylphenoxy)propyl)-4-methyl-1-oxo-6-(1,3,5-trimethyl-1H-pyrazol-4-yl)-3,4-dihydropyrazino[1,2-a]indol-2(1H)-yl)quinoline-2-carboxylic acid], at Mcl-1 [1], the Ki is 7.2 nM. On the same count and under the same terms, the result for `COCCn1c(C(=O)O)cc2cc(C)cc(N3C[C@@H](C)n4c(c(CCCOc5cc(C)c(Cl)c(C)c5)c5ccc(Cl)c(-c6c(C)nn(C)c6C)c54)C3=O)c21` [Example 709, (M, R)-7-(7-chloro-10-(3-(4-chloro-3,5-dimethylphenoxy)propyl)-4-methyl-1-oxo-6-(1,3,5-trimethyl-1H-pyrazol-4-yl)-3,4-dihydropyrazino[1,2-a]indol-2(1H)-yl)-1-(2-methoxyethyl)-5-methyl-1H-indole-2-carboxylic acid] reads less than 0.2 nM; that for `COCCn1c(C(=O)O)cc2cc(C)cc(N3C[C@@H](C)n4c(c(CCCOc5cc(C)c(Cl)c(C)c5)c5ccc(Cl)c(-c6c(C)nn(C)c6C)c54)C3=O)c21` [Example 710, (P, R)-7-(7-chloro-10-(3-(4-chloro-3,5-dimethylphenoxy)propyl)-4-methyl-1-oxo-6-(1,3,5-trimethyl-1H-pyrazol-4-yl)-3,4-dihydropyrazino[1,2-a]indol-2(1H)-yl)-1-(2-methoxyethyl)-5-methyl-1H-indole-2-carboxylic acid], less than 0.2 nM; that for `COCCOc1cc(N2C[C@@H](C)n3c(c(CCCOc4cc(C)c(Cl)c(C)c4)c4ccc(Cl)c(-c5c(C)nn(C)c5C)c43)C2=O)c2c(c1)cc(C(=O)O)n2C` [Example 711, (M, R)-7-(7-chloro-10-(3-(4-chloro-3,5-dimethylphenoxy)propyl)-4-methyl-1-oxo-6-(1,3,5-trimethyl-1H-pyrazol-4-yl)-3,4-dihydropyrazino[1,2-a]indol-2(1H)-yl)-5-(2-methoxyethoxy)-1-methyl-1H-indole-2-carboxylic acid], less than 0.2 nM. Still for that read-out and setting: the result for `COCCOc1cc(N2C[C@@H](C)n3c(c(CCCOc4cc(C)c(Cl)c(C)c4)c4ccc(Cl)c(-c5c(C)nn(C)c5C)c43)C2=O)c2c(c1)cc(C(=O)O)n2C` [Example 712, (P, R)-7-(7-chloro-10-(3-(4-chloro-3,5-dimethylphenoxy)propyl)-4-methyl-1-oxo-6-(1,3,5-trimethyl-1H-pyrazol-4-yl)-3,4-dihydropyrazino[1,2-a]indol-2(1H)-yl)-5-(2-methoxyethoxy)-1-methyl-1H-indole-2-carboxylic acid] reads less than 0.2 nM; that for `Cc1cc(N2C[C@@H](C)n3c(c(CCCOc4cc(C)c(Cl)c(C)c4)c4ccc(Cl)c(-c5c(C)nn(C)c5C)c43)C2=O)c2c(c1)cc(C(=O)O)n2Cc1ccccn1` [Example 713, (M, R)-7-(7-chloro-10-(3-(4-chloro-3,5-dimethylphenoxy)propyl)-4-methyl-1-oxo-6-(1,3,5-trimethyl-1H-pyrazol-4-yl)-3,4-dihydropyrazino[1,2-a]indol-2(1H)-yl)-5-methyl-1-(pyridin-2-ylmethyl)-1H-indole-2-carboxylic acid], less than 0.2 nM. On to “(R)-4-(7-chloro-10-(3-(4-chloro-3,5-dimethylphenoxy)propyl)-4-methyl-1-oxo-6-(1,3,5-trimethyl-1H-pyrazol-4-yl)-3,4-dihydropyrazino[1,2-a]indol-2(1H)-yl)-2-methyl-2H-indazole-1-carboxylic acid [Example 97]”, for which, at Mcl-1 [2], the Ki is less than 1 nM. Further, the GI50 in assay [3] stood at 3400 nM.
